{"source": "patent US4067997A", "about": "“Synergistic microbecidal composition and method” (priority 1976, dated 1978)", "key": {"[1]": {"test_system": "Streptococcus Group A", "test": "MIC, broth dilution (Examples I/II)", "type": "cell-based, beta-hemolytic streptococci Group A", "method": "(§1) In order to establish comparative bactericidal and fungicidal results with homologous fatty acids, a series of experiments was performed with thirty straight-chain fatty acids and derivatives thereof. Eight different gram-negative and twelve different gram-positive organisms, representing a very broad spectrum of organisms, were used in these experiments including the fungus Candida (a yeast). Additionally, fatty acids were chosen to show the effects of saturation versus unsaturation, in the fatty acid claim. Standard solutions of the fatty acids and their derivatives were prepared by first dissolving the weighed compounds in 1 to 2 ml of 95% ethanol and immediately pouring this solution into 200 ml of Tripticase Soy Broth. These lipid compounds which are insoluble in water and broth precipitated into very small crystals or droplets. The tubes containing the suspension were warmed to approximately 70° C and were then placed in an ultrasonic tank for further solubilization of the lipid derivatives.\n(§2) Standard solutions (or suspensions) at 1,000 μg/ml were twofold serially diluted with additional broth to a concentration of 125 μg/ml. A 4-ml amount of each dilution was then quickly, and with constant agitation, dispensed into appropriately labeled screw-capped glass tubes (16 by 125 mm). The tubes were sterilized with steam at 15 psi for 15 minutes. After sterilization, all tubes were cooled and incubated overnight at 35° C to insure sterility.\n(§3) All compounds were compared on a molar (micromoles/milliliter) rather than on a mass basis. In the following lists of organisms used, those followed by a parenthetical number are registered with the American Type Culture Collection (ATCC); the remainder were isolates from Providence Hospital or Northland Laboratory.\n(§4) One drop (0.04 ± 0.01 ml) of an 18-hr broth culture containing 10^7 and 10^9 organisms/ml was added to each dilution of the test compound, as well as to a tube of plain broth which served as the positive control. After inoculation, the contents of each tube were well mixed, and the tubes were incubated at 35° C in a 5% carbon dioxide + […] atmosphere.\n(§5) The MIC is defined as the lowest concentration of compound at which no […] evidence of growth was observed when turbidity of the inoculated broth dilutions was compared with control tubes. […] Only a one-tube difference between the bactericidal and bacteriostatic concentrations was normally observed.\n(§6) Standard solutions (1000 μg/ml) of three fatty acids and polyglycerol esters thereof were prepared as described in Example I. Also sucrose esters were prepared by transferring the weighed compounds (0.2 gm. dissolved in 1 ml absolute methanol) into 200 ml of sterile Trypticase Soy Broth (TSB). These standard solutions (1000 μg/ml) were twofold serially diluted with additional sterile broth to a concentration of 125 μg/ml. A 3.8 aliquot of each dilution was asceptically delivered into sterile screw-capped culture tubes. All tubes were incubated overnight at 36° C to insure sterility. The microorganisms used in this example were the same as those used in Example I.\n(§7) The inoculum, 0.05 ml of an 13-24 hour TSB culture (approximately 10^9 organisms/ml) was asceptically delivered into all dilutions of the compounds, mixed well, and incubated at 36° C. A tube of inoculated broth without the compound served as a positive control and an uninoculated set of dilutions incubated along with the test dilutions, served as a negative control.\n(§8) In those cases in which the test compound itself caused turbidity, an aliquot (0.015 ml) of the mixed broth was inoculated onto an agar plate and incubated at 36° C for examination, as described in Example I. The control procedure of Example I was also repeated. The lauric, capric, and oleic acids were used as internal controls and for comparison to Example I. The minimal inhibitory concentrations (μmole/ml) for the compounds studied are given in Tables 7 and 8."}, "[2]": {"test_system": "Nocardia asteroides", "test": "MIC, broth dilution (Examples I/II)", "type": "cell-based, Nocardia asteroids (3308)", "conditions": "Nocardia asteroides, read-out: Inhibitory concentration", "method": "as §1, §2, §3, §4, §5, §6, §7, §8"}, "[3]": {"test_system": "nine gram-positive organisms and the yeast/fungus Candida", "test": "MIC, broth dilution, over all organisms (Examples I/II)", "type": "cell-based", "conditions": "for Inhibition in words: saturated acids, Table 1", "method": "as §1, §2, §3\nStaphylococcus aureus, S. epidermidis, beta-hemolytic streptococci (Group A and non-group A), group D streptococcus, Bacillus subtilis (6051), Sarcina lutea (9431), Micrococcus sp., Candida albicans, Nocardia asteroids (3308), Corynebacterium sp. (10700), and pneumococcus (63001).\nas §4, §5\nTable 5 presents a comparison of the C10 and C12 free acids and their glyceryl derivatives, and Table 6 gives the corresponding ranges of activity.\nas §6\nThe inoculum, 0.05 ml of an 13-24 hour TSB culture (approximately 10^9 organisms/ml) was asceptically delivered into all dilutions of the compounds, mixed well, and incubated at 36° C. […]"}, "[4]": {"test_system": "Corynebacterium sp.", "test": "MIC on mass basis (Example V procedure)", "type": "cell-based", "conditions": "Table 12, Corynebacterium sp.; read-out: MIC", "method": "(§9) The essential procedure of Example I was followed with a series of phenolic compounds, with the exception that the test method was conducted on a mass (μg/ml) basis rather than a molecular (mol/ml) basis of the foregoing tests, since the long established phenol-coeffecient test is on a mass rather than molecular basis. Additionally, a different but closely related group of organisms were used in this test, in order to give a complete representative span on gram-negative, gram-positive and fungus organisms. Additionally, the phenolic derivatives chosen for test purposes include a number of derivatives which are presently accepted by the FDA as food-grade phenolic microbicides."}, "[5]": {"test_system": "Streptococcus faecalis (Group D)", "test": "MIC on mass basis (Example V procedure)", "type": "cell-based", "conditions": "Enterococcus faecalis, Table 12, Streptococcus faecalis (Group D); read-out: MIC", "method": "as §9"}, "[6]": {"test_system": "Streptococcus pyogenes", "test": "MIC on mass basis (Example V procedure)", "type": "cell-based", "conditions": "Table 12, Streptococcus pyogenes; read-out: MIC", "method": "as §9"}, "[7]": {"test_system": "Candida albicans", "test": "MIC on mass basis (Example V procedure)", "type": "cell-based", "conditions": "Candida albicans, Table 12, Candida albicans; read-out: MIC", "method": "as §9\n(§10) The same procedure of Example V was repeated but with combinations of mono-laurin (GML).\n(§11) The procedure of Example V was repeated with combinations of glycerol mono-laurin (GML) and ethylenediamine tetraacetic acid (EDTA) as the calcium salt and in combination with BHA."}, "[8]": {"test_system": "Pseudomonas aeruginosa", "test": "MIC on mass basis (Example V procedure)", "type": "cell-based", "conditions": "Pseudomonas aeruginosa, Table 12, Pseudomonas aeruginosa; read-out: MIC", "method": "as §9, §10, §11"}, "[9]": {"test_system": "Staphylococcus aureus", "test": "MIC on mass basis (Example V procedure)", "type": "cell-based", "conditions": "Staphylococcus aureus, Table 12, Staphylococcus aureus; read-out: MIC", "method": "as §9, §10, §11"}, "[10]": {"test_system": "Nocardia asteroides", "test": "MIC on mass basis (Example V procedure)", "type": "cell-based", "conditions": "Table 12, Nocardia asteroides; read-out: MIC", "method": "as §9, §10, §11"}, "[11]": {"test_system": "Saccharomyces cerevisiae", "test": "MIC on mass basis (Example V procedure)", "type": "cell-based", "conditions": "Saccharomyces cerevisiae, Table 12, Saccharomyces cerevisiae; read-out: MIC", "method": "as §9, §10, §11"}, "[12]": {"test_system": "Escherichia coli", "test": "MIC on mass basis (Example V procedure)", "type": "cell-based", "conditions": "Escherichia coli, Table 12, Eschericia coli; read-out: MIC", "method": "as §9, §10, §11"}, "[13]": {"conditions": "Table 2, range over the organisms of Table 1, read-out: MIC range"}, "[14]": {"conditions": "Table 6, range over the organisms of Table 5, NI = no inhibition"}}, "note": "Read-outs that look alike come from different tables or passages of the source.", "data": [{"compound": "CCCCCCCCCCC(O)C(=O)O", "note": "(stereo not drawn) [α-hydroxylaurate]", "values": [{"measurement": "MIC", "setting": "[1]; read-out: Inhibitory concentration, Group A Strep", "result": 230, "unit": "µM"}, {"measurement": "MIC", "setting": "[2]", "result": 4630, "unit": "µM"}]}, {"compound": "Triglycerol oleate", "values": [{"measurement": "MIC", "setting": "[3]; Table 7, one entry across all (oleic acid: all other than Grp. A) organisms, NO INHIBITION, max. tested listed", "result": "> 1980", "unit": "µM"}, {"measurement": "Activity in words", "setting": "[3]; at the concentration tested", "result": "no activity at the concentration tested"}]}, {"compound": "CCCCCCc1cc(C(C)(C)C)c(O)c(C(C)(C)C)c1", "note": "[C6, 2,6-di-tert-4-hexylphenol]", "values": [{"measurement": "MIC", "setting": "[4]", "result": 5000, "unit": "µg/mL"}, {"measurement": "MIC", "setting": "[5]", "result": "> 5000", "unit": "µg/mL"}, {"measurement": "MIC", "setting": "[6]", "result": "> 5000", "unit": "µg/mL"}, {"measurement": "MIC", "setting": "[7]", "result": "> 5000", "unit": "µg/mL"}, {"measurement": "MIC", "setting": "[8]", "result": "> 5000", "unit": "µg/mL"}, {"measurement": "MIC", "setting": "[9]", "result": "> 5000", "unit": "µg/mL"}, {"measurement": "MIC", "setting": "[10]", "result": 5000, "unit": "µg/mL"}, {"measurement": "MIC", "setting": "[11]", "result": "> 5000", "unit": "µg/mL"}, {"measurement": "MIC", "setting": "[12]", "result": "> 5000", "unit": "µg/mL"}]}, {"compound": "CCCCc1cc(C(C)(C)C)c(O)c(C(C)(C)C)c1", "note": "[C4, 2,6-di-tert-4-butylphenol]", "values": [{"measurement": "MIC", "setting": "[4]", "result": 1000, "unit": "µg/mL"}, {"measurement": "MIC", "setting": "[5]", "result": "> 5000", "unit": "µg/mL"}, {"measurement": "MIC", "setting": "[6]", "result": 5000, "unit": "µg/mL"}, {"measurement": "MIC", "setting": "[7]", "result": "> 5000", "unit": "µg/mL"}, {"measurement": "MIC", "setting": "[8]", "result": "> 5000", "unit": "µg/mL"}, {"measurement": "MIC", "setting": "[9]", "result": "> 5000", "unit": "µg/mL"}, {"measurement": "MIC", "setting": "[10]", "result": 500, "unit": "µg/mL"}, {"measurement": "MIC", "setting": "[11]", "result": "> 5000", "unit": "µg/mL"}, {"measurement": "MIC", "setting": "[12]", "result": "> 5000", "unit": "µg/mL"}]}, {"compound": "CCCC/C=C\\CCCCCCCC(=O)O", "note": "[Myristoleic]", "values": [{"measurement": "MIC", "setting": "[3]; [13]", "result": "55 to 552", "unit": "µM"}]}, {"compound": "CCCCCCCCCCCCO", "note": "[Lauryl alcohol]", "values": [{"measurement": "MIC", "setting": "[3]; Table 4, range over the organisms of Table 3, read-out: MIC range", "result": "67 to 5400", "unit": "µM"}]}, {"compound": "CCCCCCCCCCCC(=O)O", "note": "[Lauric acid, lauric acid]", "values": [{"measurement": "Effect of albumin on MIC", "setting": "[3]; Albumin (0.1%) added", "result": "had no effect on the determination of the MIC"}, {"measurement": "MIC range", "setting": "[3]; Table 4, range over the organisms of Table 3", "result": "0.062 to 2.49", "unit": "µmol/mL"}, {"measurement": "MIC range", "setting": "[3]; [14]", "result": "0.062 - 2.49 μ/Mol/ml"}, {"measurement": "MIC", "setting": "[3]; read-out: MIC range", "result": "62 to 2490", "unit": "µM"}, {"measurement": "Inhibition in words", "setting": "[3]", "result": "clearly the more active saturated acid"}, {"measurement": "MIC", "setting": "[1]; group A Streptococci, Bio Gel and Florisil used", "result": "> 990", "unit": "µM"}, {"measurement": "MIC", "setting": "[1]; group A Streptococci, filtered (laurate crystals removed)", "result": 1000, "unit": "µM"}, {"measurement": "MIC", "setting": "[1]; group A Streptococci, non-filtered broth", "result": 125, "unit": "µM"}]}, {"compound": "CCCCCCCCc1cc(C(C)(C)C)c(O)c(C(C)(C)C)c1", "note": "[C8, 2,6-di-tert-4-octylphenol]", "values": [{"measurement": "MIC", "setting": "[4]", "result": 5000, "unit": "µg/mL"}, {"measurement": "MIC", "setting": "[5]", "result": "> 5000", "unit": "µg/mL"}, {"measurement": "MIC", "setting": "[6]", "result": "> 5000", "unit": "µg/mL"}, {"measurement": "MIC", "setting": "[7]", "result": "> 5000", "unit": "µg/mL"}, {"measurement": "MIC", "setting": "[8]", "result": "> 5000", "unit": "µg/mL"}, {"measurement": "MIC", "setting": "[9]", "result": "> 5000", "unit": "µg/mL"}, {"measurement": "MIC", "setting": "[10]", "result": 5000, "unit": "µg/mL"}, {"measurement": "MIC", "setting": "[11]", "result": "> 5000", "unit": "µg/mL"}, {"measurement": "MIC", "setting": "[12]", "result": "> 5000", "unit": "µg/mL"}]}, {"compound": "CCCCCCCCCC(=O)O", "note": "[Capric acid, capric acid]", "values": [{"measurement": "MIC", "setting": "[3]; [13]", "result": "1450 to 5800", "unit": "µM"}, {"measurement": "MIC range", "setting": "[3]; [14]", "result": "1.45 - 5.8 μ/Mol/ml"}]}, {"compound": "CCCCCCCCCC(=O)OCC(O)CO", "note": "(stereo not drawn) [1-mono-caprin]", "values": [{"measurement": "MIC", "setting": "[3]; Table 6, range over the organisms of Table 5, NI = no inhibition, read-out: MIC range", "result": "100 to 2000", "unit": "µM"}]}, {"compound": "CCCCCC(=O)O", "note": "[Caproic, caproic acid]", "values": [{"measurement": "Inhibition in words", "setting": "[3]", "result": "not inhibitory at all"}]}]}
